In brackets after ≈: the same amount, converted by molar mass.

Common to all, as to type: functional
In experiment [1] the test system is Candida albicans. As to the kind of experiment: Antifungal activity against Candida albicans isolate 03-2718 infected BALB/c mouse vaginitis model assessed as reduction in fungal load in vagina at 5 mg/kg, administered through oral gavage twice daily for 5 days measured on day 6 post inoculation.
For experiment [2], the system named is Candida albicans. As to the kind of experiment: Antifungal activity against Candida albicans isolate 03-2718 infected BALB/c mouse vaginitis model assessed as reduction in fungal load in vagina at 5 mg/kg, administered through oral gavage once daily for 5 days measured on day 1 post inoculation.
The test system of experiment [3] is Candida albicans. As to the kind of experiment: Antifungal activity against Candida albicans isolate 03-2718 infected BALB/c mouse vaginitis model assessed as reduction in fungal load in vagina at 40 mg/kg, administered through oral gavage once daily for 5 days measured on day 1 post inoculation.
Experiment [4] relates to Candida albicans. As to the kind of experiment: Antifungal activity against Candida albicans isolate 03-2718 infected BALB/c mouse vaginitis model assessed as reduction in fungal load in vagina at 20 mg/kg, administered through oral gavage twice daily for 5 days measured on day 1 post inoculation.
The subject of experiment [5] is Candida albicans. As to the kind of experiment: Antifungal activity against Candida albicans isolate 03-2718 infected BALB/c mouse vaginitis model assessed as reduction in fungal load in vagina at 5 mg/kg, administered through oral gavage twice daily for 5 days measured on day 1 post inoculation.
Experiment [6] has as its system Candida albicans. As to the kind of experiment: Antifungal activity against Candida albicans isolate 03-2718 infected BALB/c mouse vaginitis model assessed as reduction in fungal load in vagina at 10 mg/kg, administered through oral gavage once daily for 5 days measured on day 6 post inoculation.
Experiment [7] deals with Candida albicans. As to the kind of experiment: Antifungal activity against Candida albicans isolate 03-2718 infected BALB/c mouse vaginitis model assessed as reduction in fungal load in vagina at 20 mg/kg, administered through oral gavage once daily for 5 days measured on day 1 post inoculation.
Experiment [8] deals with Candida albicans. As to the kind of experiment: Antifungal activity against Candida albicans isolate 03-2718 infected BALB/c mouse vaginitis model assessed as reduction in fungal load in vagina at 40 mg/kg, administered through oral gavage twice daily for 5 days measured on day 6 post inoculation.
The test system of experiment [9] is Candida albicans. As to the kind of experiment: Antifungal activity against Candida albicans isolate 03-2718 after 48 hrs. The conditions noted are these: isolate 03-2718, 48 h.
Experiment [10] relates to Candida albicans. As to the kind of experiment: Antifungal activity against Candida albicans isolate 03-2718 infected BALB/c mouse vaginitis model assessed as reduction in fungal load in vagina at 40 mg/kg, administered through oral gavage twice daily for 5 days measured on day 1 post inoculation.
Experiment [11] deals with Candida albicans. As to the kind of experiment: Antifungal activity against Candida albicans isolate 03-2718 infected BALB/c mouse vaginitis model assessed as reduction in fungal load in vagina at 5 mg/kg, administered through oral gavage once daily for 5 days measured on day 6 post inoculation.
Experiment [12] concerns Candida albicans. As to the kind of experiment: Antifungal activity against Candida albicans isolate 03-2718 infected BALB/c mouse vaginitis model assessed as reduction in fungal load in vagina at 10 mg/kg, administered through oral gavage twice daily for 5 days measured on day 6 post inoculation.
The test system of experiment [13] is Candida albicans. As to the kind of experiment: Antifungal activity against Candida albicans isolate 03-2718 infected BALB/c mouse vaginitis model assessed as reduction in fungal load in vagina at 40 mg/kg, administered through oral gavage once daily for 5 days measured on day 6 post inoculation.
The subject of experiment [14] is Candida albicans. As to the kind of experiment: Antifungal activity against Candida albicans isolate 03-2718 infected BALB/c mouse vaginitis model assessed as reduction in fungal load in vagina at 10 mg/kg, administered through oral gavage once daily for 5 days measured on day 1 post inoculation.
For experiment [15], the system named is Candida albicans. As to the kind of experiment: Antifungal activity against Candida albicans isolate 03-2718 infected BALB/c mouse vaginitis model assessed as reduction in fungal load in vagina at 20 mg/kg, administered through oral gavage twice daily for 5 days measured on day 6 post inoculation.
The subject of experiment [16] is Candida albicans. As to the kind of experiment: Antifungal activity against Candida albicans isolate 03-2718 infected BALB/c mouse vaginitis model assessed as reduction in fungal load in vagina at 20 mg/kg, administered through oral gavage once daily for 5 days measured on day 6 post inoculation.
Experiment [17] has as its system Candida albicans. As to the kind of experiment: Antifungal activity against Candida albicans isolate 03-2718 infected BALB/c mouse vaginitis model assessed as reduction in fungal load in vagina at 10 mg/kg, administered through oral gavage twice daily for 5 days measured on day 1 post inoculation.

With `C[C@@H](n1cnc2cc(Cl)ccc2c1=O)[C@](O)(Cn1cncn1)c1ccc(F)cc1F` [ALBACONAZOLE], the log10cfu in [1] is reported as 4.82; in [2] it was 5.06; in experiment [3], 5.62; in experiment [4], 5.48; in [5], 5.46; in experiment [6] it was 4.33. For the same compound, the log10cfu in experiment [7] came to 5.13; in experiment [8], 2.24; in experiment [10] it was 5.79; in [11] it was 4.99; in experiment [12] it was 3.83; in experiment [13], 3.13. Besides, the log10cfu in experiment [14] was 5.07; in experiment [15], 3.34; in experiment [16], 3.81; in [17], 5.43. This compound returned an MIC in [9] of 0.5 µg/mL (≈ 1.16 µM).

Consider `OC(Cn1cncn1)(Cn1cncn1)c1ccc(F)cc1F` [FLUCONAZOLE], for which the log10cfu is on record as 5.9 in experiment [4], 5.51 in experiment [7], 3.74 in [15] and 4.51 in experiment [16].

Source of the values: ChEMBL document CHEMBL1649223, “Efficacy of albaconazole against Candida albicans in a vaginitis model” (2009).
